Patent US4916214A, “Cationic complexes of technetium-99m” (Amersham International plc., priority 1987, dated 1990)
Like-named read-outs stand apart in the source and are kept apart here. Values belong to the molecule of their own block, whether it stands above or below them.

Key:
[1] = Animal biodistribution of 99mTc complexes in guinea pigs; type: in vivo, guinea pig;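 also: Heart, liver and kidney plus urine values are percent of the injected material, background-corrected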
Description: (§1) Percentage biodistribution of injected material was calculated (after correction for background) for all organs using the formula: [formula]
(§2) Since only samples of muscle and blood were taken, the percentage in these tissues was calculated assuming blood and muscle to represent 5.8 and 43% of total animal weight respectively using the formula: [formula]
Since only samples of muscle and blood were taken, the percentage in these tissues was calculated assuming blood and muscle to represent 5.8 and 43% of total animal weight respectively using the formula: [formula] where CF= 0.058 for blood

[2] = rat, in vivo
Description: (§3) In vivo biodistribution: 0.1 ml Tc^99m prep was injected i.v. into a laterial tail vein of 6 anaesthetised rats.
(§4) At 2 minutes and 60 minutes post-injection, 3 rats were sacrificed by decapitation, bled from the neck and dissected. The following organs were removed at dissection: kidney; bladder(+ urine), lung, liver, spleen, stomach, small intestine, large intestine, brain (weighed), heart (weighed), thyroid and samples of blood (weighed) and muscle (weighed), the residual carcass and the tail (injection site). Subsequently samples were counted in an automatic twin crystal gamma counter.
as §1, §2

[3] = Animal biodistribution of 99mTc complexes in rats (i.v. injection, organ counting); settings: Table VII, nitrosyl complex [Tc(NO)Cl2 L2 ]^- of the ligand, 60 min p.i.
Description: as §3, §4, §1, §2

[4] = guinea pig, 2 min p.i. in vivo, mean
[5] = guinea pig, 60 min p.i. in vivo, mean
[6] = Table VIII, [TcL3 ]^+ complex of the ligand, guinea pigs, 2 min p.i.
[7] = Table VIII, [TcL3 ]^+ complex of the ligand, guinea pigs, 60 min p.i.

SMILES: COCC(COC)(CP(C)C)CP(C)C.COCC(COC)(CP(C)C)CP(C)C.O=[N][99Tc+][Cl].[Cl-] [Example 19]
Blood [1, 4]: 3.77 % injected dose/organ | Heart [1, 4]: 1.36 % injected dose/organ | Heart/Blood Counts/Gram ratio [1, 4]: 8.66 | Heart/Liver Counts/Gram ratio [1, 4]: 2.20 | Heart/Lung Counts/Gram ratio [1, 4]: 0.9 | Heart/Muscle Counts/Gram ratio [1, 4]: 4.65 | Kidney + Urine [1, 4]: 15.5 % injected dose/organ | Liver [1, 4]: 11.0 % injected dose/organ | Liver + GI [1, 4]: 35.0 % injected dose/organ | Lung [1, 4]: 1.57 % injected dose/organ | Muscle [1, 4]: 38.6 % injected dose/organ | Blood [1, 5]: 0.48 % injected dose/organ | Heart [1, 5]: 1.05 % injected dose/organ | Heart/Blood Counts/Gram ratio [1, 5]: 49.6 | Heart/Liver Counts/Gram ratio [1, 5]: 17.5 | Heart/Lung Counts/Gram ratio [1, 5]: 2.0 | Heart/Muscle Counts/Gram ratio [1, 5]: 4.77 | Kidney + Urine [1, 5]: 18.1 % injected dose/organ | Liver [1, 5]: 0.92 % injected dose/organ | Liver + GI [1, 5]: 45.9 % injected dose/organ | Lung [1, 5]: 0.52 % injected dose/organ | Muscle [1, 5]: 30.6 % injected dose/organ | Blood ([2]; 2 min): 2.05 % injected dose/organ | Heart ([2]; 2 min): 1.56 % injected dose/organ | Heart/Blood Counts/Gram ratio ([2]; 2 min): 10.9 | Heart/Liver Counts/Gram ratio ([2]; 2 min): 1.56 | Heart/Lung Counts/Gram ratio ([2]; 2 min): 1.8 | Heart/Muscle Counts/Gram ratio ([2]; 2 min): 4.57 | Kidney + Urine ([2]; 2 min): 8.94 % injected dose/organ | Liver ([2]; 2 min): 13.2 % injected dose/organ | Liver + GI ([2]; 2 min): 35.3 % injected dose/organ | Lung ([2]; 2 min): 1.33 % injected dose/organ | Muscle ([2]; 2 min): 36.2 % injected dose/organ | Blood ([2]; 60 min): 0.14 % injected dose/organ | Heart ([2]; 60 min): 1.47 % injected dose/organ | Heart/Blood Counts/Gram ratio ([2]; 60 min): 192 | Heart/Liver Counts/Gram ratio ([2]; 60 min): 17.2 | Heart/Lung Counts/Gram ratio ([2]; 60 min): 3.6 | Heart/Muscle Counts/Gram ratio ([2]; 60 min): 5.6 | Kidney + Urine ([2]; 60 min): 11.0 % injected dose/organ | Liver ([2]; 60 min): 1.03 % injected dose/organ | Liver + GI ([2]; 60 min): 45.5 % injected dose/organ | Lung ([2]; 60 min): 0.68 % injected dose/organ | Muscle ([2]; 60 min): 28.2 % injected dose/organ

Heart [1, 6]: 0.53 % injected dose | Heart/Blood Counts/Gram ratio [1, 6]: 0.42 | Heart/Liver Counts/Gram ratio [1, 6]: 0.30 | Heart/Muscle Counts/Gram ratio [1, 6]: 6.11 | Liver [1, 6]: 38.0 % injected dose | Heart [1, 7]: 0.38 % injected dose | Heart/Blood Counts/Gram ratio [1, 7]: 3.27 | Heart/Liver Counts/Gram ratio [1, 7]: 0.13 | Heart/Muscle Counts/Gram ratio [1, 7]: 4.12 | Liver [1, 7]: 36.8 % injected dose | Heart/Liver Counts/Gram ratio [3]: 1.52
SMILES: CP(C)CCP(C)C [dmpe, di(dimethylphosphino) ethane, reference compound]
